Assay: In-vitro testing of glucose units in a glucose solution before and after mixing with the agent
Format: biochemical
Conditions: 10 mls of 10% glucose solution (more than 600 mg/dl before)
Procedure: Our methods were: In-vitro testing to determine glucose units in a glucose solution before and after mixing with Amzylite against other known hypoglaycaemic agents (metformin, sulfonylurea, etc) including insulin. 10 mls of 10% concentrated glucose solution tested for glucose concentration using glucose oxidase and or hexokinase (glucometers can also be used). […] One or two capsule of Amzylite was added to the glucose solution. In-vivo: 141 type I and type II diabetics with diabetes neuropathy, in addition to 9 diabetics with renal incompetency, 15 diabetics with chronic wounds to extremities, 2 diabetics had progressive gas gangrene, all patients had neuropathy with impaired sensations to distal extremities and one none diabetic with renal failure were identified. 31 out of 141 were excluded for incomplete records. 8 self discharged. 128 classified into 4 groups: 33 on insulin therapy; 20 on insulin and oral hypoglycaemic agents, 58 on only oral hypoglycaemic therapy, 16 on diet control only. 9 with high creatinine levels, 15 with chronic wounds, 2 had gas gangrene to distal extremities and one non diabetic had renal incompetency and was on dialysis. Laboratory tests were determined before and after starting Amzylite. No placebo was given.
In-vitro testing to determine glucose units in a glucose solution before and after mixing with Amzylite against other known hypoglaycaemic agents (metformin, sulfonylurea, etc) including insulin. 10 mls of 10% concentrated glucose solution tested for glucose concentration using glucose oxidase and or hexokinase (glucometers can also be used). […] One capsule of Amzylite added to the glucose solution. For In-vivo study to determine the effectiveness of Amzylite as treatment for D.M. 141 patients with type I and type II D.M were treated with Amzylite. 31 patients were excluded for incomplete records. 8 patients' self withdrawn. […] Fasting and 2 hours postprandial blood glucose levels (HbA1c checked in some but not all patients) were determined before starting Amzylite. […] Saliva enzymes function tests were determined for disaccharides and polysaccharides in all patients. […] Improvement in patients' symptoms, daily glucose readings (fasting/2 hour postprandial) and HbA1c were set up as target and evaluation criteria. […] Changes were also determined by […]. 1—Improvement with complete recovery, 2—Significant improvement of symptoms and readings (range 70-170 mg/dl and below 200 mg/dl), 3—Improved symptoms but no change on readings, 4—Improved readings but no improvement on symptoms, 5—No change on symptoms or readings, 6—Higher or lower glucose readings. […]

[1] = one capsule of Amzylite, second study
[2] = one or two capsules of Amzylite, first study

CN(C)C(=N)N=C(N)N [metformin]
In vitro glucose readings after mixing [1]: No changes | In vitro glucose readings after mixing [2]: No changes

insulin
In vitro glucose readings after mixing [1]: No changes | In vitro glucose readings after mixing [2]: No changes

— US20090317371A1, “Method, Composition, and Device, for the Treatment of Amylase Malfunctions / Inactivity in Association with Saccharides (Mainly Polysaccharides) Based Diseases” (priority 2008, published 2009)
